Results published in patent publication US9750247B2, “Nematotoxic composition of synergistic effect, use of a nematotoxic composition of synergistic effect” (EMPRESA BRASILEIRA DE PESQUISA AGROPECUARIA—EMBRAPA, priority 2012, dated 2017).

What was measured:
[1] = test system: second-stage juveniles (J2) of M. incognita; assay: Bioassay against second-stage juveniles (J2) of M. incognita, 48 hours' exposure (paralysis); type: in vivo; settings: for J2 paralyzed / % paralyzed nematodes / % of paralyzed nematodes / nematotoxic effect on J2: 48 hours' exposure; for % of paralyzed nematodes: 0.25 g/L (of each compound)
Experimental: (§1) FIG. 9—(A) Bioassay showing the effect of the commercial compounds on second-stage juveniles of M. incognita after 48 hours' exposure. 1—Control dH20, 2—DECE, 3—Glycose 10%, 4—Glycose 20%, 5—D-Pinitol (80 ug), 6—D-Pinitol (150 ug), 7—L-canavanina (80 ug), 8—L-canavanina (150 ug), 9—palmitic acid (80 ug), 10—palmitic acid (150 ug), 11—citric acid (80 ug), 12—citric acid (150 ug), 13—malic acid (80 ug), 14—malic acid (150 ug), 15—cis-aconitic acid (80 ug), 16—cis-anonitic acid (150 ug), 17—trans-anonitic acid (80 ug), 18—trans-aconitic acid (150 ug), 19—50 mM Tris/HCl pH 8, 20—50 mM acetic acid pH 5, 21—L-phenylamine (80 ug), 22—L-phenylamine (150 ug), 23—L-methionine (80 ug), 24—L-methionine (150 ug), 25—L-tryptophan (80 ug), 26—L-tryptophan (150 ug), 27—S-carboxymethylcistein (80 ug), 28—S-carboxymethylcisteine (150 ug), 29—Zantotoxine (80 ug), 30—Zantotoxine (150 ug), and 31—Glucose 20%+L-canavanine (15) ug). B—Evaluation of the effect of the different commercial compounds after the recovery assay using distilled water.
(§2) FIG. 10—(A) Bioassay showing the effect of the commercial compounds and their compositions on second-stage juveniles of M. incognita (J1) after 48 hours' exposure. C+ positive control (extract); C−: negative control (water); 2: palmitic acid; 3: S-carboxymethylcisteine; 4: trans-aconitic acid; 5: glucose. […] (B)—Evaluation of the effect of the different commercial compounds and their compositions after the recovery assay using distilled water. C+ positive control (extract); 2: palmitic acid; 3: S-carboxymethylcisteine; 4: trans-aconitic acid; 5: glucose.
(§3) In this context, compounds produced commercially with biological functions identified after research in the literature and present in the nematotoxic fractions of C. ensiformis were tested in bioassay against M. incognita juveniles (FIG. 9A).

J2 of M. incognita = assay: Recovery assay using distilled water (nematicidal vs nematostatic effect); type: in vivo
Experimental: as §1, §2, §3

| Molecule | J2 paralyzed ([1]; 80 μg/300 μL) | % paralyzed nematodes ([1]; 0.125 g/L (of each compound)) [%] | % paralyzed nematodes ([1]; 0.17 g/L (of each compound)) [%] | kind of effect confirmed by recovery assay (J2 of M. incognita; 80 μg/300 μL) | kind of effect confirmed by recovery assay (J2 of M. incognita; 150 μg/300 μL) | nematotoxic effect on J2 ([1]; 80 μg/300 μL) | nematotoxic effect on J2 ([1]; 150 μg/300 μL) | other results |
| --- | --- | --- | --- | --- | --- | --- | --- | --- |
| O=C(O)/C=C(\CC(=O)O)C(=O)O [trans-aconitic acid] | 90% | <11.12 | 11.12 | – | – | – | – | % of paralyzed nematodes [1]: 27.08%; nematicidal activity after the recovery assay (J2 of M. incognita; 150 μg/300 μL): 98% |
| S-carboxymethylcisteine | about 90% | <43.03 | 43.03 | nematostatic effect | nematostatic effect | – | – | J2 paralyzed ([1]; 150 μg/300 μL): about 90% |
| CCCCCCCCCCCCCCCC(=O)O [palmitic acid] | – | <7.66 | 7.66 | nematostatic effect | nematostatic effect | – | – | % of paralyzed nematodes [1]: 33.86% |
| N=C(N)NOCC[C@H](N)C(=O)O [L-canavanine] | – | – | – | – | – | did not exhibit any nematotoxic activity | – | juveniles remained paralyzed after the recovery assay (J2 of M. incognita; 105 μg/300 μL): 25% |
| O=C[C@H](O)[C@@H](O)[C@H](O)[C@H](O)CO [glucose] | – | 0 | – | – | – | – | – | paralyzing of nematodes ([1]; solution 10% (W/V), 48 hours): paralyzing most of the nematodes; kind of activity confirmed by recovery assay (J2 of M. incognita; solution 10% (W/V)): nematostatic activity |
| CO[C@H]1[C@H](O)[C@@H](O)[C@@H](O)[C@H](O)[C@@H]1O [D-pinitol] | – | – | – | – | – | did not exhibit any toxic effect | did not exhibit any toxic effect | – |
| O=C(O)/C=C(/CC(=O)O)C(=O)O [cis-aconitic, cis-aconitic acid] | – | – | – | – | – | – | – | nematicidal activity after the recovery assay (J2 of M. incognita; 150 μg/300 μL): 40% |
| N[C@@H](Cc1ccccc1)C(=O)O [L-phenylamnine] | – | – | – | – | – | not capable of affecting the J2 | not capable of affecting the J2 | – |
| N[C@@H](Cc1c[nH]c2ccccc12)C(=O)O [L-triptofane] | – | – | – | – | – | not capable of affecting the J2 | not capable of affecting the J2 | – |
| COc1c2occc2cc2ccc(=O)oc12 [Xantotoxin] | 87% | – | – | nematicidal effect | nematicidal effect | – | – | J2 paralyzed ([1]; 150 μg/300 μL): 87% |
